Like-named read-outs stand apart in the source and are kept apart here.

Data set [1] has as its target T1, T1r2a/T1r3 full-length receptor (Oryzias latipes, UniProt A0A173M094+A0A173M0G2). As to the kind of experiment: Ca2+-flux receptor response assay in Flip-In 293 cells stably expressing full-length T1r2a, T1r3 and Gα16-gust44. It counts as cell-based, O. latipes. The conditions noted are these: for ΔRFU: average ± s.e.m. How it is done:
The Ca^2+-flux assay was performed using Flip-In 293 cell line (Life Technologies) stably expressing full-length T1r2a, T1r3, and Gα16-gust44 as described previously. The response stimulated by either 5 or 10 mM amino acid was represented asΔRFU (delta relative fluorescence unit) defined as the maximum fluorescence intensity induced by the addition of the amino acid, subtracted with that of an assay buffer in the absence of amino acid.

For data set [2] the following is noted: cited from earlier work; for Hydropathy Index: hydrophobicity/hydrophilicity, ref Kyte & Doolittle, J. Mol. Biol., 157, 105 (1982); for pI: ref Handbook of Chemistry and Physics, CRC Press; for logKd_CW (polarity): transfer from cyclohexane to an aqueous solution, ref Radzicka & Wolfenden, Biochemistry, 27, 1664 (1988); for Es'c (steric effects) / πα (hydrophobicity) / HP (hydration potential): α-substituent group; for Es'c (steric effects) / πα (hydrophobicity): ref Akamatsu et al., J. Pharm. Sci., 83, 1026 (1994); for HP (hydration potential): ref Wolfenden et al., Biochemistry, 20, 849 (1981).

In data set [3] the test system is T1r2a/T1r3LBD. Set-up: method as in Nuemket, Yasui, et al. [11]. The settings on record: ref Nuemket, Yasui, et al. [11]; read-out: FRET EC50; cited from earlier work.
Data set [4] concerns the target medaka T1r2a/T1r3LBD (Oryzias latipes, UniProt A0A173M094+A0A173M0G2). The data set can be described thus: Differential scanning fluorimetry (DSF) thermal shift ligand-binding assay. Set-up: species or system O. latipes. The settings on record: for ΔTm: average ± s.e.m., n = 4; for effect on thermal stability / Tm shift of T1r2a/T1r3LBD (in words): DSF, 0.1-10 mM amino acid. How it is done:
The protein sample was prepared as described previously. Briefly, Drosophila S2 cells (Invitrogen) stably expressing C-terminal FLAG-tagged T1r2aLBD and T1r3LBD [11, 21] were cultured in ExpressFiveSFM (LifeTechnologies) for five days at 27 °C. The T1r2a/T1r3-LBD protein was purified from the culture medium by the use of ANTI-FLAG M2 Affinity Gel (SIGMA). The purified protein was dialyzed against the assay buffer (20 mM Tris-HCl, 300 mM NaCl, 2 mM CaCl2, pH 8.0).
The protein sample (~1 μg) was mixed with Protein Thermal Shift Dye (Applied Biosystems) and 10~10,000 μM concentration of each amino acid in 20 μL of assay buffer and loaded to a MicroAmpR Fast Optical 48-Well Reaction Plate (Applied Biosystems). Specifically, to minimize the changes of the chemical and optical condition, the amino acid solutions were prepared by the exact same buffer used for the final dialysis of the protein, followed by the re-adjustment of the pH to ~ 8.0 by addition of either NaOH or HCl, and mixed with the protein diluted with the same buffer.
Fluorescent intensity was measured by the StepOne Real-Time PCR System (Applied Biosystems). The temperature was raised from 25 °C to 99 °C with a velocity of 0.022 °C/sec. The reporter and quencher for detection were set as “ROX” and “none”, respectively. Apparent melting transition temperature (Tm) was determined by the use of the maximum of the derivatives of the melt curve (dFluorescence/dT) by Protein Thermal Shift Software version 1.3 (Applied Biosystems).
The apparent dissociation constant (Kd-app) derived from the DSF results was estimated based on Eq 1 proposed by Schellman, assuming that the unfolding of the protein is reversible: ΔTm=Tm−T0=TmT0R/ΔH^0ln(1+[L]/Kd-app) (1) where [L] is the ligand concentration; Tm and T0 are the apparent melting transition temperatures in the presence and absence of the ligand; R is the gas constant; ΔH^0 is the enthalpy of unfolding at T0, assuming that there are no significant variations under the tested conditions. If the melt curves show biphasic profiles, the second (or the right side) Tm values were adopted for calculation, as described in the Results section.
For multiple regression analyses shown in Fig 2B, the apparent Tm values determined at different ligand concentrations were fitted to Eq 1 by using KaleidaGraph (Synergy Software), assuming that the change of the dissociation constant accompanied by the Tm shift is negligible.
A general note: Differential scanning fluorimetry follows unfolding on heating by fluorescence.

Data set [5] addresses T1, T1r2a/T1r3 full-length receptor. Set-up: method as in PMID 28534491. The settings on record: ref [11]; cited from earlier work.
The mark [6] stands for this setting: 5 mM amino acid, n = 6 (n = 12 for L-glutamine).
Setting [7] is: read-out: Kd-app estimated at a single ligand concentration, from ΔTm at 0.1 mM via Eq 1, T0 326.1 K, ΔH0 72.1 kcal mol-1.
Setting [8] is: read-out: Kd-app estimated at a single ligand concentration, from ΔTm at 1 mM via Eq 1, T0 326.1 K, ΔH0 72.1 kcal mol-1.
[9] abbreviates: read-out: Kd-app estimated at a single ligand concentration, from ΔTm at 10 mM via Eq 1, T0 326.1 K, ΔH0 72.1 kcal mol-1.

Chain of medaka T1r2a/T1r3LBD (A0A173M094 entry or part of it): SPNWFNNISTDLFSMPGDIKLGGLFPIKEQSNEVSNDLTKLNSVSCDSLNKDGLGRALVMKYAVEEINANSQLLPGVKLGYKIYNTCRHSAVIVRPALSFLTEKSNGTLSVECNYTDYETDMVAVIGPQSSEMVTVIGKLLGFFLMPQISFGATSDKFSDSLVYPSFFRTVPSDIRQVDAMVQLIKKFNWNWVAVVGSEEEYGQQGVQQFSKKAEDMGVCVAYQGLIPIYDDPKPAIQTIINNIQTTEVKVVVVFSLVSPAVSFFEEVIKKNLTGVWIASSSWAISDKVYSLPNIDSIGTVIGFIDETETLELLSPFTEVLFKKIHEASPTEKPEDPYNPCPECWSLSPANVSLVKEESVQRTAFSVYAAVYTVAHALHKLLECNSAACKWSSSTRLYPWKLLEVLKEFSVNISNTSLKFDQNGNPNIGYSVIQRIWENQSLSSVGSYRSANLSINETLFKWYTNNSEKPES
Chain of medaka T1r2a/T1r3LBD (A0A173M0G2 entry or part of it): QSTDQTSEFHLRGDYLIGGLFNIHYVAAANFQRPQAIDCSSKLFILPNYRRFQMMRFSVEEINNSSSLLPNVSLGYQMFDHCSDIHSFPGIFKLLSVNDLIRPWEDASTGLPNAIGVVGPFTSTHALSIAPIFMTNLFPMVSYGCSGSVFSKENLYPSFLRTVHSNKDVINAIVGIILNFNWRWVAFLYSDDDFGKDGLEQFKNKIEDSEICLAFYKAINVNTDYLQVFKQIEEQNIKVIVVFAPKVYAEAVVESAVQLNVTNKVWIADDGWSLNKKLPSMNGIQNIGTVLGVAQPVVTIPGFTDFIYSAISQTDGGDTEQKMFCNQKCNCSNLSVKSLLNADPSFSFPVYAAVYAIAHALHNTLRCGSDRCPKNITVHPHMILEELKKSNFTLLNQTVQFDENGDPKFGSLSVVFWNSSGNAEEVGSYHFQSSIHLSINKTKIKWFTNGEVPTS
T1 sequence (A0A173M0G2 entry or part of it): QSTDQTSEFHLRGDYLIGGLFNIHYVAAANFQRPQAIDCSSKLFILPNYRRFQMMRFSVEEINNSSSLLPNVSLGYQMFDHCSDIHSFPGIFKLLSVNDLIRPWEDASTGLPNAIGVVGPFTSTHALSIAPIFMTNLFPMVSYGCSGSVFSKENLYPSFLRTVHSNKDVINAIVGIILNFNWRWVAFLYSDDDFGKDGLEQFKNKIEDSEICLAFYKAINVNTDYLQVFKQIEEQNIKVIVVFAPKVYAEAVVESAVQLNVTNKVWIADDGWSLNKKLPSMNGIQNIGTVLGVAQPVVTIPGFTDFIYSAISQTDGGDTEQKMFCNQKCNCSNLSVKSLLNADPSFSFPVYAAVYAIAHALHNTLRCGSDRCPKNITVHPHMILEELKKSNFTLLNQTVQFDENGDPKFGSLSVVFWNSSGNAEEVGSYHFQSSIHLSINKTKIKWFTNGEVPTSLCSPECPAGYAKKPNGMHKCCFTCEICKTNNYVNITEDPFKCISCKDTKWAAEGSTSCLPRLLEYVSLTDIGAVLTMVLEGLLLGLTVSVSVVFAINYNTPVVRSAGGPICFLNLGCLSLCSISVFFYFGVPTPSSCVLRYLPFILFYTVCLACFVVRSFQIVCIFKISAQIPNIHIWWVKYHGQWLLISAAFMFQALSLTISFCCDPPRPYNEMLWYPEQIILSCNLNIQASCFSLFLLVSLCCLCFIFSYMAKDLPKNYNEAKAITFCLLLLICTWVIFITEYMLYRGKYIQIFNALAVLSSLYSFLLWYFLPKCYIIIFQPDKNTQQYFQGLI
T1 sequence (A0A173M094 entry or part of it): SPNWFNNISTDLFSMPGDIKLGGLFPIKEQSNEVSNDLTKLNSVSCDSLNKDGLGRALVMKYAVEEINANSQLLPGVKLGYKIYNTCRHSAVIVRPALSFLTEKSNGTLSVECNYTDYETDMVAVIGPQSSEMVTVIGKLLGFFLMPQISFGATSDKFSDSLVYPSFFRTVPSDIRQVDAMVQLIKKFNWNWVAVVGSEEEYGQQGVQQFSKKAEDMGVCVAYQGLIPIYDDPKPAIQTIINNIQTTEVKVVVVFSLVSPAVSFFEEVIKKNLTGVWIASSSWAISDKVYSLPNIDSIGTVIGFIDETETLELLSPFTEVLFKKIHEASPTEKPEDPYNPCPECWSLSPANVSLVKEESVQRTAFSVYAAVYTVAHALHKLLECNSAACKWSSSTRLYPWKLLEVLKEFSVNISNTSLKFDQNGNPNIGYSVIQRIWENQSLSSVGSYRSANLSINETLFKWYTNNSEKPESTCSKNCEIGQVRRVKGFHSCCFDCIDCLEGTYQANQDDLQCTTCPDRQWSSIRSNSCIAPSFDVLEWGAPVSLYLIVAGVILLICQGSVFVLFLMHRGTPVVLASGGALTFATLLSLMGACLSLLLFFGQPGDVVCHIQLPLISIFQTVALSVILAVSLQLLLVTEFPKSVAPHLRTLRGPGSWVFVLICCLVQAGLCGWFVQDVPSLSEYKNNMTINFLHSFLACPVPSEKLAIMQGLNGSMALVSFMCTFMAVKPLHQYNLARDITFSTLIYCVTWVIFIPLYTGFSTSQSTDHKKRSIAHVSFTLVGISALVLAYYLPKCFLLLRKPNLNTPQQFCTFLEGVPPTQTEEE

Regarding `N=C(N)NCCC[C@H](N)C(=O)O` [L-Arg, arginine], the ΔRFU in data set [1] (setting [6]) is 68.2 ± 5.39; in data set [1] (10 mM amino acid, n = 6), 63.4 ± 9.85. The EC50 was 2650 µM in data set [1] (EC50-est, estimated from ΔRFU at 5 mM by Hill equation, ΔRFUmax 104.3); 6440 µM in data set [1] (EC50-est, estimated from ΔRFU at 10 mM by Hill equation, ΔRFUmax 104.3); 2630 µM in data set [1] (pEC50-est, from response at 5 mM, log 1/EC50-est); 6460 µM in data set [1] (pEC50-est, from response at 10 mM, log 1/EC50-est); 190 ± 35 µM in data set [3]. Further, in data set [2], the “Hydropathy Index” value was -4.5. For the same compound, the pI in data set [2] was 10.76. Moreover, the “logKd_CW (polarity)” value in data set [2] is recorded as 4.32. For the same compound, in data set [2], the “Es'c (steric effects)” value is -0.82. The “πα (hydrophobicity)” value in data set [2] was -0.42. Further, the “HP (hydration potential)” value in data set [2] was -19.92. Further, the ΔTm in data set [4] (0.1 mM amino acid) came out at 0.45 ± 0.17 K; in data set [4] (1 mM amino acid) it was 6.98 ± 0.08 K; in data set [4] (10 mM amino acid), 11.0 ± 0.05 K. In addition, the Kd was 131 ± 66 µM in data set [4] (DSF Kd-app, Tm at 8 or 9 ligand concentrations fitted to Eq 1 (Schellman), fitted parameter ± s.e.) and 275 µM in data set [4] (pKd-app, log 1/Kd-app, converted from S1 Table values (10 mM; L-Ala 1 mM, L-Gln 0.1 mM)). In addition, in data set [4], the “effect on thermal stability / Tm shift of T1r2a/T1r3LBD (in words)” value was “thermally stabilized the protein”. The “Kd-app fold difference compared with FRET EC50” value worked out at 3.20 fold in data set [4] (Kd-app from 0.1 mM), 0.568 fold in data set [4] (Kd-app from 1 mM) and 1.44 fold in data set [4] (Kd-app from 10 mM). Moreover, the potency estimated from few doses in data set [4] (setting [7]) is 608 µM; in data set [4] (setting [8]) it was 108 µM; in data set [4] (setting [9]), 274 µM.

As to `NC(=O)CCC(N)C(=O)O` (stereo in doubt) [D-glutamine], the “full-length receptor response (in words)” value in data set [5] is listed as “significantly weak responses”.

Turning to `C[C@H](N)C(=O)O` [L-Ala, L-alanine], the ΔRFU in data set [1] (setting [6]) is given as 64.7 ± 12.8; in data set [1] (10 mM amino acid, n = 6), 90.8 ± 9.46. Also, the EC50 in data set [1] (estimated from ΔRFU at 5 mM by Hill equation, ΔRFUmax 104.3, read-out: EC50-est) was 3060 µM; in data set [1] (estimated from ΔRFU at 10 mM by Hill equation, ΔRFUmax 104.3, read-out: EC50-est), 1490 µM; in data set [1] (from response at 5 mM, log 1/EC50-est, read-out: pEC50-est (converted)), 3090 µM; in data set [1] (from response at 10 mM, log 1/EC50-est, read-out: pEC50-est (converted)), 1480 µM; in data set [3], 141 ± 37 µM. The “Hydropathy Index” value in data set [2] was 1.8. Further, in data set [2], the pI is on record as 6. In addition, the “logKd_CW (polarity)” value in data set [2] was -1.33. Also, in data set [2], the “Es'c (steric effects)” value is reported as -0.2. In addition, the “πα (hydrophobicity)” value in data set [2] is reported as 0.28. In data set [2], the “HP (hydration potential)” value is reported as 1.94. Also, the ΔTm was 0.41 ± 0.09 K in data set [4] (0.1 mM amino acid), 6.92 ± 0.03 K in data set [4] (1 mM amino acid) and 11.1 ± 0.02 K in data set [4] (10 mM amino acid). Also, the “effect on thermal stability / Tm shift of T1r2a/T1r3LBD (in words)” value in data set [4] was “exhibited large Tm shifts”. Moreover, the “Kd-app fold difference compared with FRET EC50” value in data set [4] (Kd-app from 0.1 mM) was determined as 4.71 fold; in data set [4] (Kd-app from 1 mM), 0.782 fold; in data set [4] (Kd-app from 10 mM), 1.91 fold. Besides, in data set [4] (Tm at 8 or 9 ligand concentrations fitted to Eq 1 (Schellman), fitted parameter ± s.e., read-out: DSF Kd-app), the Kd stood at 54.1 ± 24.5 µM. The potency estimated from few doses was 664 µM in data set [4] (setting [7]), 110 µM in data set [4] (setting [8]) and 269 µM in data set [4] (setting [9]).
